Laboratory results as given in paper PMC10218704, “A Novel Blood–Brain Barrier-Penetrating and Vascular-Targeting Chimeric Peptide Inhibits Glioma Angiogenesis” (International Journal of Molecular Sciences, 2023).
Ends that are not written are not given here.

Columns and labels:
HUVECs = assay: Annexin V-FITC/PI staining, flow cytometry (apoptosis); assay type: cell-based, human; settings: 320 μmol/L, 24 h; for induction of apoptosis: Hoechst and Annexin V-FITC/PI staining; for total apoptotic rate (Q1-UR and Q1-LR): mean ± SD, n = 3, control (7.17 ± 1.42)%
Experimental: HUVECs were seeded into 6-well culture plates (3 × 10^5 cells/well). […] After discarding the supernatant and washing with cold PBS, the cells were fixed in 4% paraformaldehyde and stained with Hoechst 33,258 for 10 min. Then, the cells were washed with cold PBS and observed using an inverted fluorescence microscope. HUVECs were treated with different peptides (the methods were the same as the Hoechst staining). After 24 h, cells were collected by trypsin digestion and washed with PBS. Annexin V-FITC/PI staining was conducted according to the manufacturer’s instructions for the Apoptosis Detection Kit. Briefly, 195 μL of Annexin V-FITC/PI dilution buffer was added to resuspend the cells. Then, 5 μL of Annexin V-FITC and 10 μL of PI staining solutions were added and gently mixed with the cells. After incubation at room temperature in the dark for 10 min, the apoptotic cells were detected by flow cytometry.

VEGFR-2 = assay type: binding, human; settings: peptide 256 and 1000 nmol/L; VEGF-A165 0.5-8 nmol/L; CM5 chip; HBS-EP
Experimental: To determine the effect of TAT-AT7 in competition with VEGF-A165 binding to VEGFR-2 or NRP-1, the SPR assay was conducted. The whole operation was conducted on a Biacore S200 instrument. The recombinant VEGFR-2 or NRP-1 proteins were firstly immobilized on a CM5 chip by an amine-coupling reaction. VEGF-A165 ligands with gradient concentrations in the absence or presence of different peptides were then flowed over the CM5 chip. The binding of VEGF-A165 ligands to the immobilized recombinant VEGFR-2 or NRP-1 proteins led to an increase of the refractive index on the surface of the chip, which could be converted into the fluctuation of electrical signals in the response (RU). As the concentration of VEGF-A165 was higher, the response value was also higher. However, with the addition of different peptides, the response value decreased to different degrees (Figure 3A and Figure 4A).
(TAT), ATWLPPR (AT7), and […] (TAT-AT7) were synthesized from China Peptides Co., Ltd. (Shanghai, China). The Hoechst 33,258 staining kit, Annexin V-FITC/PI apoptosis detection kit, and BCA protein assay kit were obtained from Beyotime Biotechnology (Nantong, China). The total protein extraction kit was from BestBio (Shanghai, China). The CM5 sensor chip was obtained from GE Healthcare Life Sciences (Uppsala, Sweden). Purified recombinant human VEGFR-2 and NRP-1 receptor proteins were purchased from R&D Systems (Minneapolis, MN, USA). Recombinant human endothelial growth factor-A165 (VEGF-A165) was obtained from PeproTech (Rocky Hill, NJ, USA). Anti-ERK1/2, anti-p-ERK1/2, anti-p-VEGFR-2, anti-AKT, anti-p-AKT, anti-p-SRC, anti-p-FAK, anti-p38 MAPK, anti-p-p38 MAPK, anti-p-PLC-γ, and anti-GAPDH antibodies were purchased from Cell Signaling Technology (Danvers, MA, USA). Anti-VEGFR-2, anti-FAK, and anti-SRC were purchased from Proteintech Group, Inc (Wuhan, China). F-12K medium, heparin, and endothelial cell growth supplement (ECGS) were from Macgene (Beijing, China). DMEM medium and fetal bovine serum (FBS) were obtained from Gibco®, Life Technologies (Carlsbad, CA, USA). […]

[1] = tested on: zebrafish embryo intersegmental vessel; assay: Zebrafish embryo intersegmental vessel angiogenesis; assay type: in vivo; settings: 25 µmol/L; 24 h; 28 °C; fluorescence microscope; vs control; n = 3
Experimental: After a certain period, healthy, sexually mature female and male zebrafish were mated in a 1:1 ratio. After 24 h, the fertilized eggs were removed, disinfected, and washed, and then placed in embryo culture water and cultured in an incubator at 28 °C for 24 h. The fertilized eggs were washed with chain enzyme protease E solution (1 mg/mL) to remove the egg membrane on the surface and placed under a microscope to observe and select the normally developing zebrafish embryos, and then placed into a 24-well plate. […] The control group was added with the same volume of embryo culture water, and then placed in an incubator at 28 °C for 24 h. Zebrafish embryos were randomly removed from each group and observed under a fluorescence microscope. The total length of zebrafish internode vessels was calculated and counted.

[2] = tested on: intracranial U87-mCherry-luc glioma; assay: Glioma distribution and vascular targeting in vivo (FITC fluorescence, CD31 immunostaining); design: species or system nude mice; settings: 1 h
Source text: The orthotopic U87-mCherry-luc glioma-bearing nude mice model was firstly established. Female nude mice were anesthetized by isoflurane and fixed on a ventricle stereotaxic instrument. U87-mCherry-luc cells were collected after trypsin digestion and then injected into the right striatum of the brain of nude mice. On the 4th day after the surgery, the bioluminescence of the glioma tissue was detected by the IVIS kinetic imaging system (Lumina II; Caliper, MA, USA). The mice were randomly divided into four groups according to the bioluminescence intensity (n = 3). FITC-AT7, FITC-TAT, and FITC-TAT-AT7 (30 mg/Kg) were injected into mice via the tail vein on day 8. The control group was only injected with normal saline. After 1 h, the mice were sacrificed, and the brains were collected and fixed with 4% paraformaldehyde for 24 h. Then, the fixed brains were dehydrated by 15% and 30% sucrose, successively, frozen with O.C.T. embedding reagent, and then cut into frozen brain tissue slices. Then, sections of slices were incubated with rabbit anti-murine CD31 antibody, followed by treatment with Cy5.5-labeled goat anti-rabbit IgG secondary antibody. The slices were further stained with DAPI for 5 min and observed using a confocal microscope.

[3] = FITC-labeled peptide 30 mg/kg, tail vein, n = 3

| Compound | induction of apoptosis (HUVECs) | total apoptotic rate (Q1-UR and Q1-LR) (HUVECs) | effect on VEGF-A165 and VEGFR-2 binding (RU) (VEGFR-2) | intersegmental vascular growth [1] | co-localization with glioma blood vessels (CD31) [2, 3] | green (FITC) fluorescence intensity in glioma tissue [2, 3] | accumulation and distribution in the glioma region ([2]; FITC-labeled peptide, intravenous, discussion) |
| --- | --- | --- | --- | --- | --- | --- | --- |
| CC(C)C[C@H](NC(=O)[C@H](Cc1c[nH]c2ccccc12)NC(=O)[C@@H](NC(=O)[C@H](C)NC(=O)[C@H](CS)NC(=O)[C@H](CCCNC(=N)N)NC(=O)[C@H](CCCNC(=N)N)NC(=O)[C@H](CCCNC(=N)N)NC(=O)[C@H](CCC(N)=O)NC(=O)[C@H](CCCNC(=N)N)NC(=O)[C@H](CCCNC(=N)N)NC(=O)[C@H](CCCCN)NC(=O)[C@H](CCCCN)NC(=O)[C@@H](N)CCCNC(=N)N)[C@@H](C)O)C(=O)N1CCC[C@H]1C(=O)N1CCC[C@H]1C(=O)N[C@@H](CCCNC(=N)N)C(=O)O [TAT-AT7] | strongly induced HUVECs’ apoptosis | 29.56 ± 3.07% | significantly reduced the RU value | significantly inhibit the generation of the zebrafish embryo intersegmental vessel | obviously co-localized with glioma blood vessels | significantly higher than that in the AT7 and TAT groups | higher accumulation and deeper distribution in the glioma region after intravenous injection compared to TAT and TAT+AT7 |
| ATWLPPR [AT7, ATWLPPR] | no obvious effect of promoting apoptosis | 7.80 ± 1.50% | less inhibitory effects on VEGF-A165 and VEGFR-2 binding than TAT-AT7 | no obvious effect on intersegmental vascular growth |  |  |  |
